Source: publication PMC3521961, “Molecular Basis for Recognition of Dilysine Trafficking Motifs by COPI” (Developmental Cell, 2012)
“Also recorded” adds a separate entry of the source. Each block holds one substance with its values, some of them ahead of it. No end group written: not given here.

Experiments:
[1] = tested on: α-COP D96A D115A mutant (α1-327); test: ITC with α1-327 D96A D115A mutant; type: binding, yeast; settings: 10°C, 300 mM NaCl
Procedure: (§1) ITC experiments were conducted on a Microcal VP-ITC machine (GE Healthcare) at 10°C. Molar peptide concentration in the syringe was ten times that of protein in the cell. β'-COP constructs were gel filtered into 50 mM HEPES (pH 7.4) and 100 mM NaCl, and α-COP constructs were gel filtered into 50 mM HEPES (pH 7.4) and 300 mM NaCl prior to runs. Titration data were analyzed in ORIGIN to obtain values for stoichiometry (N), equilibrium association constant (Ka), and enthalpy of binding. All experiments were carried out at least three times with appropriate standard deviations reported.
(§2) Figure S3, related to Figure 2. Model and in vitro data of α-COP 1-327 binding to a KKxx
(§3) motif. A homology model of residues 1-327 of yeast α-COP binding to the KKTN motif from
(§4) (1 picture or pasted object on this page, not shown here)
(§5) Homology model of the α-COP N-terminal propeller
(§6) Isothermal titration calorimetry

[2] = tested on: α-COP R13A K15S R57S mutant (α1-327); test: ITC with α1-327 R13A K15S R57S mutant; type: binding, yeast; settings: 10°C, 300 mM NaCl
Procedure: as §1, §2, §3, §4, §5, §6

[3] = tested on: α-COP D229A E273A mutant (α1-327); test: ITC with α1-327 D229A E273A mutant; type: binding, yeast; settings: 10°C, 300 mM NaCl
Procedure: as §1, §2, §3, §4, §5, §6

[4] = biological target: T1, yeast β'-COP 1-304 (N-terminal WD-repeat domain), wild-type (Saccharomyces cerevisiae, UniProt P41811); test: ITC of dilysine motif peptides with wild-type β'1-304; type: binding; settings: for binding by ITC (in words): 10°C, 50 mM HEPES pH 7.4, 100 mM NaCl, at least three runs
T1 construct: GST (thrombin-cleavable) (C, cleaved yes); made in house; host or cells: E. coli BL21(DE3)pLysS
T1 sequence (P41811 1-304): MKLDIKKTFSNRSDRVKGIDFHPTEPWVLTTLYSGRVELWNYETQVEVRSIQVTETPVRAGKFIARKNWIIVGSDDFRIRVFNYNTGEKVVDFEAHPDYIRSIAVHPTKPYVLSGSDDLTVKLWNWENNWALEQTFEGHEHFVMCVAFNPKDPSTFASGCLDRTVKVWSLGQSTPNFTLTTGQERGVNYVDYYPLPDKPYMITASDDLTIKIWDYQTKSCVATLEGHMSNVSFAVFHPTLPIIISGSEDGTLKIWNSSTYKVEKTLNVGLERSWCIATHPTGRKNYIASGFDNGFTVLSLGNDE
Procedure: as §6
equilibrium association constant (Ka), and enthalpy of binding. All experiments were carried out
100 mM NaCl to mimic physiological salt conditions. Wild type yeast α-COP (α1-327) was gel
Immediately prior to a run, the protein was
mM NaCl than at 100 mM NaCl.
and ultraviolet absorbance (Agilent 1200 UV, Agilent Technologies). Samples of β’1-304 or 1-
the construct lacks the α-solenoid domain. […]

[5] = biological target: β'-COP D206A E248A mutant (β'1-304) (Saccharomyces cerevisiae, UniProt P41811, D206A/E248A); test: biochemical
Chain of β'-COP D206A E248A mutant (β'1-304) (P41811 1-304 D206A/E248A): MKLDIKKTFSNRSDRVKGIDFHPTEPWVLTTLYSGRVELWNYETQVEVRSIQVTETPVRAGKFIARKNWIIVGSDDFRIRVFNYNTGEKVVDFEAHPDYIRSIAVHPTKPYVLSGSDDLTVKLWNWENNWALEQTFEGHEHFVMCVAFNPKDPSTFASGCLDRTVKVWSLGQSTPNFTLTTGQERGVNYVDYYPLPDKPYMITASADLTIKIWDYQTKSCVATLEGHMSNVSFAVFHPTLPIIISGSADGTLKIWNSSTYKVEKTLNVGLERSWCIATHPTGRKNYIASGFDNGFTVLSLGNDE
Procedure: (§7) The β'-COP R15A K17A R59A mutant was designed to disrupt binding to the carboxy terminus of the motif, and the D206A E248A mutant was intended to disrupt binding to the -3 lysine.
as §1, §5, §6

[6] = biological target: β'-COP D98A D117A mutant (β'1-304) (Saccharomyces cerevisiae, UniProt P41811, D117A/D98A); test: biochemical
Chain of β'-COP D98A D117A mutant (β'1-304) (P41811 1-304 D98A/D117A): as the sequence (P41811 1-304 D206A/E248A) above, with D98A, D117A, A206D, A248E counted along it
Procedure: as §7, §1, §5, §6

[7] = biological target: β'-COP R15A K17A R59A mutant (β'1-304) (Saccharomyces cerevisiae, UniProt P41811, K17A/R15A/R59A); test: biochemical
Chain of β'-COP R15A K17A R59A mutant (β'1-304) (P41811 1-304 R15A/K17A/R59A): as the sequence (P41811 1-304 D206A/E248A) above, with R15A, K17A, R59A, A206D, A248E counted along it
Procedure: as §7, §1, §5, §6

binding by ITC (in words) [4]: no measurable binding
Substance: KTKLL-CONH2 [amidated KTKLL peptide]

binding by ITC (in words) [4]: no measurable binding
Substance: RRVV [RRVV peptide from p24]

Further lines, the substance ahead of its results:

Substance: CTFKKTN-OH [KKTN]
binding by ITC (in words) [1]: no measurable binding
binding by ITC (in words) [2]: no measurable binding
binding by ITC (in words) [3]: no measurable binding

Substance: KKLIE [KKLIE peptide from p23]
binding by ITC (in words) [4]: no measurable binding; also recorded: does not bind

Substance: KTSLL [KTKLL motif variant lacking the -3 lysine]
binding by ITC (in words) [4]: no measurable binding

Substance: RQEIIKTKLL [KTKLL]
measured KD at 300 mM NaCl relative to 100 mM NaCl ([4]; ITC control runs in 300 mM NaCl compared to 100 mM NaCl): four- to five-fold weaker
Kd [5]: < 300 µM
Kd [6]: < 300 µM
Kd [7]: < 300 µM
